Results published in patent US20230085307A1, “PYRIDAZINONE COMPOUND AND HERBICIDE” (NISSAN CHEMICAL CORPORATION, priority 2019, published 2023).

Assays:
late watergrass = assay: Test Example 1: herbicidal activity, application before weed generation under submerged conditions (Table 16, symbol A); assay type: in vivo, late watergrass (Echinochloa oryzicola); conditions: amount of applied herbicide 320 g/ha
Procedure, shortened: (§1)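 Alluvial soil was flooded to 4 cm depth, weed seeds were sown mixed and 2.5-leaf rice seedlings were transplanted. On sowing day, the compound's emulsion, diluted in water to a set dose, was applied to the water surface. Plants grew at 25–30 °C and were scored 0–5 after three weeks.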

Japanese bulrush = assay: Test Example 1: herbicidal activity, application before weed generation under submerged conditions (Table 16, symbol B); assay type: in vivo, Japanese bulrush (Schoenoplectus juncoides); conditions: amount of applied herbicide 320 g/ha
Procedure, shortened: as §1

oval-leafed pondweed = assay: Test Example 1: herbicidal activity, application before weed generation under submerged conditions (Table 16, symbol C); assay type: in vivo, oval-leafed pondweed (Monochoria vaginalis); conditions: amount of applied herbicide 320 g/ha
Procedure, shortened: as §1

barnyard grass [1] = assay: Test Example 3: herbicidal effect by foliage application, Wagner pot (Table 18, symbol H); assay type: in vivo, barnyard grass (Echinochloa crus-galli); conditions: 320 g/ha
Procedure, shortened: (§2)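 Plants were sown in alluvial soil held under 0.1–0.5 cm standing water and grown 14 days in a greenhouse at 25–30 °C. An emulsifiable formulation, water-diluted to the set dose, was then sprayed onto the foliage, and effects were scored three weeks later using previously defined criteria.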

Chinese sprangletop = assay: Test Example 3: herbicidal effect by foliage application, Wagner pot (Table 18, symbol D); assay type: in vivo, chinese sprangletop (Leptochloa chinensis); conditions: 320 g/ha
Procedure, shortened: as §2

rice flat sedge = assay: Test Example 3: herbicidal effect by foliage application, Wagner pot (Table 18, symbol E); assay type: in vivo, rice flat sedge (Cyperus iria); conditions: 320 g/ha
Procedure, shortened: as §2

southern crabgrass [2] = assay: Test Example 4: herbicidal effect by soil treatment (Table 19, symbol F); assay type: in vivo, southern crabgrass (Digitaria ciliaris); conditions: amount of applied herbicide 320 g/ha
Procedure, shortened: (§3)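 Pre-emergence style soil spray: seeds under ~1.5 cm sterilized diluvial soil received a uniform coat of emulsion diluted to the predetermined herbicide amount. Greenhouse 25–30° C; readout at week three on previously defined criteria.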

green foxtail [3] = assay: Test Example 4: herbicidal effect by soil treatment (Table 19, symbol G); assay type: in vivo, green foxtail (Setaria viridis); conditions: amount of applied herbicide 320 g/ha
Procedure, shortened: as §3

barnyard grass [4] = assay: Test Example 4: herbicidal effect by soil treatment (Table 19, symbol H); assay type: in vivo, barnyard grass (Echinochloa crus-galli); conditions: amount of applied herbicide 320 g/ha
Procedure, shortened: as §3

wild oat [5] = assay: Test Example 4: herbicidal effect by soil treatment (Table 19, symbol I); assay type: in vivo, wild oat (Avena fatua); conditions: amount of applied herbicide 320 g/ha
Procedure, shortened: as §3

blackgrass [6] = assay: Test Example 4: herbicidal effect by soil treatment (Table 19, symbol J); assay type: in vivo, blackgrass (Alopecurus myosuroides); conditions: amount of applied herbicide 320 g/ha
Procedure, shortened: as §3

Italian ryegrass [7] = assay: Test Example 4: herbicidal effect by soil treatment (Table 19, symbol K); assay type: in vivo, Italian ryegrass (Lolium multiflorum); conditions: amount of applied herbicide 320 g/ha
Procedure, shortened: as §3

windgrass [8] = assay: Test Example 4: herbicidal effect by soil treatment (Table 19, symbol L); assay type: in vivo, windgrass (Apera spica-venti); conditions: amount of applied herbicide 320 g/ha
Procedure, shortened: as §3

velvetleaf [9] = assay: Test Example 4: herbicidal effect by soil treatment (Table 19, symbol M); assay type: in vivo, velvetleaf (Abutilon theophrasti); conditions: amount of applied herbicide 320 g/ha
Procedure, shortened: as §3

redroot pigweed [10] = assay: Test Example 4: herbicidal effect by soil treatment (Table 19, symbol N); assay type: in vivo, redroot pigweed (Amaranthus retroflexus); conditions: amount of applied herbicide 320 g/ha
Procedure, shortened: as §3

lambsquarters [11] = assay: Test Example 4: herbicidal effect by soil treatment (Table 19, symbol O); assay type: in vivo, lambsquarters (Chenopodium album); conditions: amount of applied herbicide 320 g/ha
Procedure, shortened: as §3

chickweed [12] = assay: Test Example 4: herbicidal effect by soil treatment (Table 19, symbol P); assay type: in vivo, common chickweed (Stellaria media); conditions: amount of applied herbicide 320 g/ha
Procedure, shortened: as §3

persian speedwell [13] = assay: Test Example 4: herbicidal effect by soil treatment (Table 19, symbol R); assay type: in vivo, Persian speedwell (Veronica persica); conditions: amount of applied herbicide 320 g/ha
Procedure, shortened: as §3

southern crabgrass [14] = assay: Test Example 5: herbicidal effect by foliage application, plastic box (Table 20, symbol F); assay type: in vivo, southern crabgrass (Digitaria ciliaris)
Procedure, shortened: (§4)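 Plants were sown into sterilized diluvial soil under about 1.5 cm cover and kept in a greenhouse at 25° C. to 30° C. Fourteen days on, foliage received an even spray of the diluted emulsion. Herbicidal or crop effect was judged three weeks afterwards.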

green foxtail [15] = assay: Test Example 5: herbicidal effect by foliage application, plastic box (Table 20, symbol G); assay type: in vivo, green foxtail (Setaria viridis)
Procedure, shortened: as §4

barnyard grass [16] = assay: Test Example 5: herbicidal effect by foliage application, plastic box (Table 20, symbol H); assay type: in vivo, barnyard grass (Echinochloa crus-galli)
Procedure, shortened: as §4

wild oat [17] = assay: Test Example 5: herbicidal effect by foliage application, plastic box (Table 20, symbol I); assay type: in vivo, wild oat (Avena fatua)
Procedure, shortened: as §4

blackgrass [18] = assay: Test Example 5: herbicidal effect by foliage application, plastic box (Table 20, symbol J); assay type: in vivo, blackgrass (Alopecurus myosuroides)
Procedure, shortened: as §4

Italian ryegrass [19] = assay: Test Example 5: herbicidal effect by foliage application, plastic box (Table 20, symbol K); assay type: in vivo, Italian ryegrass (Lolium multiflorum)
Procedure, shortened: as §4

windgrass [20] = assay: Test Example 5: herbicidal effect by foliage application, plastic box (Table 20, symbol L); assay type: in vivo, windgrass (Apera spica-venti)
Procedure, shortened: as §4

velvetleaf [21] = assay: Test Example 5: herbicidal effect by foliage application, plastic box (Table 20, symbol M); assay type: in vivo, velvetleaf (Abutilon theophrasti)
Procedure, shortened: as §4

redroot pigweed [22] = assay: Test Example 5: herbicidal effect by foliage application, plastic box (Table 20, symbol N); assay type: in vivo, redroot pigweed (Amaranthus retroflexus)
Procedure, shortened: as §4

lambsquarters [23] = assay: Test Example 5: herbicidal effect by foliage application, plastic box (Table 20, symbol O); assay type: in vivo, lambsquarters (Chenopodium album)
Procedure, shortened: as §4

chickweed [24] = assay: Test Example 5: herbicidal effect by foliage application, plastic box (Table 20, symbol P); assay type: in vivo, common chickweed (Stellaria media)
Procedure, shortened: as §4

false cleavers = assay: Test Example 5: herbicidal effect by foliage application, plastic box (Table 20, symbol Q); assay type: in vivo, false cleavers (Galium spurium)
Procedure, shortened: as §4

persian speedwell [25] = assay: Test Example 5: herbicidal effect by foliage application, plastic box (Table 20, symbol R); assay type: in vivo, Persian speedwell (Veronica persica)
Procedure, shortened: as §4

[26] = foliage application, 320 g/ha, three weeks after application
[27] = amount of applied herbicide 320 g/ha, foliage application after 14-day growth, evaluated three weeks after application

SMILES | Herbicidal effect, A: late watergrass (late watergrass) | Herbicidal effect, B: Japanese bulrush (Japanese bulrush) | Herbicidal effect, C: oval-leafed pondweed (oval-leafed pondweed) | herbicidal effect on barnyard grass (H) (barnyard grass [1]) | herbicidal effect on Chinese sprangletop (D) (Chinese sprangletop) | herbicidal effect on rice flat sedge (E) (rice flat sedge) | F: southern crabgrass, herbicidal effect grade (southern crabgrass [2]) | G: green foxtail, herbicidal effect grade (green foxtail [3]) | H: barnyard grass, herbicidal effect grade (barnyard grass [4]) | I: wild oat, herbicidal effect grade (wild oat [5]) | J: blackgrass, herbicidal effect grade (blackgrass [6]) | K: Italian ryegrass, herbicidal effect grade (Italian ryegrass [7]) | L: windgrass, herbicidal effect grade (windgrass [8]) | M: velvetleaf, herbicidal effect grade (velvetleaf [9]) | N: redroot pigweed, herbicidal effect grade (redroot pigweed [10]) | O: lambsquarters, herbicidal effect grade (lambsquarters [11]) | P: chickweed, herbicidal effect grade (chickweed [12]) | R: persian speedwell, herbicidal effect grade (persian speedwell [13]) | other results
CCOc1ccccc1-c1sc2cc(OCc3ccccc3)ccc2c1-c1c(O)c(C)nn(C)c1=O [3-119] | 3 (Herbicidal rate of 40% or more and less than 70%) | 3 (Herbicidal rate of 40% or more and less than 70%) | 3 (Herbicidal rate of 40% or more and less than 70%) | 4 (Herbicidal rate of 70% or more and less than 90%) | 4 (Herbicidal rate of 70% or more and less than 90%) | 5 (Herbicidal rate of 90% or more (almost completely withered)) | 4 (Herbicidal rate of 70% or more and less than 90%) | 3 (Herbicidal rate of 40% or more and less than 70%) | 0 (Herbicidal rate of 5% or less (almost no effect)) | 0 (Herbicidal rate of 5% or less (almost no effect)) | 0 (Herbicidal rate of 5% or less (almost no effect)) | 0 (Herbicidal rate of 5% or less (almost no effect)) | 0 (Herbicidal rate of 5% or less (almost no effect)) | 0 (Herbicidal rate of 5% or less (almost no effect)) | 3 (Herbicidal rate of 40% or more and less than 70%) | 3 (Herbicidal rate of 40% or more and less than 70%) | 0 (Herbicidal rate of 5% or less (almost no effect)) | 5 (Herbicidal rate of 90% or more (almost completely withered)) | F: southern crabgrass, herbicidal effect grade (southern crabgrass [14]; [26]): 5 (Herbicidal rate of 90% or more (almost completely withered)); G: green foxtail, herbicidal effect grade (green foxtail [15]; [26]): 5 (Herbicidal rate of 90% or more (almost completely withered)); H: barnyard grass, herbicidal effect grade (barnyard grass [16]; [26]): 3 (Herbicidal rate of 40% or more and less than 70%); I: wild oat, herbicidal effect grade (wild oat [17]; [26]): 1 (Herbicidal rate of 5% or more and less than 20%); J: blackgrass, herbicidal effect grade (blackgrass [18]; [26]): 0 (Herbicidal rate of 5% or less (almost no effect)); K: Italian ryegrass, herbicidal effect grade (Italian ryegrass [19]; [26]): 1 (Herbicidal rate of 5% or more and less than 20%); L: windgrass, herbicidal effect grade (windgrass [20]; [26]): 4 (Herbicidal rate of 70% or more and less than 90%); M: velvetleaf, herbicidal effect grade (velvetleaf [21]; [26]): 4 (Herbicidal rate of 70% or more and less than 90%); N: redroot pigweed, herbicidal effect grade (redroot pigweed [22]; [26]): 5 (Herbicidal rate of 90% or more (almost completely withered)); O: lambsquarters, herbicidal effect grade (lambsquarters [23]; [26]): 5 (Herbicidal rate of 90% or more (almost completely withered)); P: chickweed, herbicidal effect grade (chickweed [24]; [26]): 5 (Herbicidal rate of 90% or more (almost completely withered)); Q: false cleavers, herbicidal effect grade (false cleavers; [26]): 5 (Herbicidal rate of 90% or more (almost completely withered)); R: persian speedwell, herbicidal effect grade (persian speedwell [25]; [26]): 5 (Herbicidal rate of 90% or more (almost completely withered))
CCCC(=O)Oc1c(C)nn(C)c(=O)c1-c1c(-c2ccc(C)cc2)sc2cc(F)c(F)cc12 [5-004] | 2 (Herbicidal rate of 20% or more and less than 40%) | 3 (Herbicidal rate of 40% or more and less than 70%) | 0 (Herbicidal rate of 5% or less (almost no effect)) | 3 (Herbicidal rate of 40% or more and less than 70%) | 0 (Herbicidal rate of 5% or less (almost no effect)) | 0 (Herbicidal rate of 5% or less (almost no effect)) | 0 (Herbicidal rate of 5% or less (almost no effect)) | 0 (Herbicidal rate of 5% or less (almost no effect)) | 0 (Herbicidal rate of 5% or less (almost no effect)) | 0 (Herbicidal rate of 5% or less (almost no effect)) | 0 (Herbicidal rate of 5% or less (almost no effect)) | 0 (Herbicidal rate of 5% or less (almost no effect)) | 0 (Herbicidal rate of 5% or less (almost no effect)) | 0 (Herbicidal rate of 5% or less (almost no effect)) | 3 (Herbicidal rate of 40% or more and less than 70%) | 4 (Herbicidal rate of 70% or more and less than 90%) | 0 (Herbicidal rate of 5% or less (almost no effect)) | 0 (Herbicidal rate of 5% or less (almost no effect)) | Herbicidal effect by foliage application, F: southern crabgrass (southern crabgrass [14]; [27]): 0 (Herbicidal rate of 5% or less (almost no effect)); Herbicidal effect by foliage application, G: green foxtail (green foxtail [15]; [27]): 3 (Herbicidal rate of 40% or more and less than 70%); Herbicidal effect by foliage application, H: barnyard grass (barnyard grass [16]; [27]): 0 (Herbicidal rate of 5% or less (almost no effect)); Herbicidal effect by foliage application, I: wild oat (wild oat [17]; [27]): 0 (Herbicidal rate of 5% or less (almost no effect)); Herbicidal effect by foliage application, J: blackgrass (blackgrass [18]; [27]): 0 (Herbicidal rate of 5% or less (almost no effect)); Herbicidal effect by foliage application, K: Italian ryegrass (Italian ryegrass [19]; [27]): 1 (Herbicidal rate of 5% or more and less than 20%); Herbicidal effect by foliage application, L: windgrass (windgrass [20]; [27]): 1 (Herbicidal rate of 5% or more and less than 20%); Herbicidal effect by foliage application, M: velvetleaf (velvetleaf [21]; [27]): 3 (Herbicidal rate of 40% or more and less than 70%); Herbicidal effect by foliage application, N: redroot pigweed (redroot pigweed [22]; [27]): 2 (Herbicidal rate of 20% or more and less than 40%); Herbicidal effect by foliage application, O: lambsquarters (lambsquarters [23]; [27]): 4 (Herbicidal rate of 70% or more and less than 90%); Herbicidal effect by foliage application, P: chickweed (chickweed [24]; [27]): 3 (Herbicidal rate of 40% or more and less than 70%); Herbicidal effect by foliage application, Q: false cleavers (false cleavers; [27]): 0 (Herbicidal rate of 5% or less (almost no effect)); Herbicidal effect by foliage application, R: persian speedwell (persian speedwell [25]; [27]): 3 (Herbicidal rate of 40% or more and less than 70%)
